# Data: patent publication EP0622358A1, “Phenylglycinamides of 4-imidazolylmethyl-phenyl-acetic acids and their use against hypertension and atherosclerosis” (BAYER AG, priority 1993, dated 1994)
# System: glatte Muskelzellen
# Experiment: Inhibition of proliferation of smooth muscle cells (3H-thymidine incorporation)
# Type: cell-based, Ratten
# Settings: half-maximal inhibition of thymidine incorporation induced by 10% FCS; rat aortic smooth muscle cells; read-out: IC₅₀
# Procedure: Untersuchung zur Inhibition der Proliferation glatter Muskelzellen durch die erfindungsgemäßen Verbindungen
# Zur Feststellung der antiproliferativen Wirkung der Verbindungen werden glatte Muskelzellen verwendet, die aus den Aorten von Ratten durch die Media-Explantat-Technik gewonnen werden [R. Ross, J. Cell. Biol. 50, 172, 1971]. Die Zellen werden in geeigneten Kulturschalen, in der Regel 96-Loch-Platten, ausgesät und für 2 - 3 Tage in Medium 199 mit 7,5% FCS und 7,5% NCS, 2 mM L-Glutamin und 15 mM HEPES, pH 7,4 in 5% CO₂ bei 37°C kultiviert. Danach werden die Zellen durch Serumentzug für 2 - 3 Tage synchronisiert und sodann mit Serum zum Wachstum angeregt. Gleichzeitig werden Testverbindungen zugesetzt. Nach 16 - 20 Stunden wird 1 µCi ³H-Thymidin zugefügt und nach weiteren 4 Stunden der Einbau dieser Substanz in die TCA-präzipitierbare DNA der Zellen bestimmt Zur Bestimmung der IC₅₀₋Werte wird die Wirkstoffkonzentration errechnet, die bei sequentieller Verdünnung des Wirkstoffes halbmaximale Hemmung der durch 10% FCS hervorgerufene Thymidininkorporation bewirkt. Tabelle B
smiles,measurement,value
"CCCCc1nc(Cl)c(CO)n1Cc1ccc(C(C(=O)NC(C(N)=O)c2ccccc2)C2CCCC2)cc1 (centres unmarked) [Beispiel 6, 2-{2-[4-(2-Butyl-4-chlor-5-hydroxymethyl-imidazol-1-yl-methyl)phenyl]-2-cyclopentyl}acetamido-2-phenyl-acetamid]",IC50,0.2 nM
"CCCCc1nc(Cl)c(C=O)n1Cc1ccc(C(C(=O)NC(C(N)=O)c2ccccc2)C2CCCC2)cc1 (centres unmarked) [Beispiel 1, 2-{2-[4-(2-Butyl-4-chlor-5-formyl-imidazol-1-yl-methyl)phenyl]-2-cyclopentyl}-acetamido-2-phenyl-acetamid]",IC50,1 nM
